What was measured:
[1] = target: T1, influenza A RNA-dependent RNA polymerase (Influenza A virus, UniProt P03428+P03431+P03433)
[2] = system: influenza A/Puerto Rico/8/34 (H1N1) virus; type: cell-based
[3] = target: T1, influenza A RNA-dependent RNA polymerase; test: cell-based
influenza A = type: cell-based
[4] = system: influenza A/Puerto Rico/8/34; test: In vivo survival study after live infection; set-up: species or system Balb/C mice; conditions: 3 doses, 2xLD50 intranasal challenge, survival = 70% or more of starting weight
Experimental: In Vivo Survival Studies: Groups of 5 Balb/C mice ([…]) were weighed prior to the start of study and injected intravenously at the base of the tail with formulations containing A0435 at doses of 3.17, 1, or 0 mg/kg in phosphate buffered saline containing 3% w/v mouse serum albumin. Four hours later, these mice were challenged intranasally with 2xLD50 of influenza A/Puerto Rico/8/34 under anesthesia. Identical doses of A0435 were administered 24 and 48 hours after the initial dose administration and animal weights were monitored daily. Surviving animals were defined as those who maintained 70% or more of their starting weight.

[5] = system: liver-derived HepG2 cells
[6] = system: constitutive gene expression; test: Counter screen: separate reporter system with cell death-activated reporter construct (constitutive gene expression); conditions: for observed toxicity or efficacy in either assay tested: antiviral and counterscreen assay
[7] = system: primary renal proximal tubule epithelial cells (or RPTEC)
[8] = system: influenza A/WS/1933 (H1N1); type: cell-based
[9] = system: H3N2 serotype A/Aichi/2/68; type: cell-based, influenza A
influenza B = test: Inhibition of influenza B (method not described)

In the case of `CCc1c(C)nc2cc(-c3ccc(OC)c(OC)c3)nn2c1NCCc1ccccc1C` [A0439, 2-(3,4-dimethoxyphenyl)-6-ethyl-5-methyl-N-[2(2-methylphenyl)ethyl]pyrazolo[1,5-a]pyrimidin-7-amine], the “toxicity in the reporter assay” value [1] is reported as “increased toxicity at higher doses due to precipitation”, the “concentrations with significant antiviral activity” value [2] is reported as greater than 7.5 µM and the IC50 [3] is reported as roughly 5 µM.
`CCc1c(C)nc2cc(-c3ccc(OC)c(OC)c3)nn2c1NCCc1ccccn1` [A0435, 2-(3,4-dimethoxyphenyl)-6-ethyl-5-methyl-N-[2(pyridin-2-yl)ethyl]pyrazolo[1,5-a]pyrimidin-7-amine] was tested, and the “cytopathic effects characteristic of influenza A infection” value (influenza A) was “little to no signs of the cytopathic effects”, the “animals survived infection at day 7 post-infection” value ([4]; 1 mg/kg intravenously) was 2/5 and the “animals survived infection at day 7 post-infection” value ([4]; 3.17 mg/kg intravenously) was 3/5. The “concentrations with significant antiviral activity” value [2] was greater than 4 µM, the IC50 [3] was roughly 3 µM and the “tolerability in cellular model of toxicity” value [5] was “well-tolerated”. The “inhibitory impact on the level of constitutive gene expression” value ([6]; counter-screen assay, dose titration) was “no visible inhibitory impact”, the “tolerability in cellular model of toxicity” value [7] was “well-tolerated” and the inhibition of virus [8] was “significantly inhibited”. For the same molecule, the inhibition of virus [9] was “significantly inhibited” and the “inhibition of influenza B” value (influenza B) was “inhibitable”.
With `COc1ccc(-c2cc3c(=O)[nH]nc(SCc4ccc5c(c4)OCO5)n3n2)cc1OC` [A0551, 7-(benzo[d][1,3]dioxol-5-ylmethylthio)-2-(3,4-dimethoxyphenyl)pyrazolo[1,5-d][1,2,4]triazin-4(5H)-one] the IC50 [3] was greater than 50 µM and the “observed toxicity or efficacy in either assay tested” value (“observed toxicity or efficacy” below) [6] was >50 µM (no observed toxicity or efficacy in either assay tested).
`COc1ccc(-c2cc3nc(C)cc(NCc4ccccc4)n3n2)cc1` [A0548, N-benzyl-2-(4-methoxyphenyl)-5-methylpyrazolo[1,5-a]pyrimidin-7-amine] was tested, and the IC50 [3] was greater than 50 µM and the “observed toxicity or efficacy” value [6] was >50 µM (no observed toxicity or efficacy in either assay tested).
`COc1ccc(-c2cc3nc(-c4ccccc4)cc(NCc4ccccc4C)n3n2)cc1OC` [A0528, 2-(3,4-dimethoxyphenyl)-N-(2-methylbenzyl)-5-phenylpyrazolo[1,5-a]pyrimidin-7-amine] was tested, and the IC50 [3] was greater than 50 µM and the “observed toxicity or efficacy” value [6] was >50 µM (no observed toxicity or efficacy in either assay tested).

— patent EP3079693B1 (priority 2013, dated 2015)
